# According to the supplement of paper PMC8837787:
# System: Saccharomyces cerevisiae ABC16-Green Monster
# Test: growth inhibition at single dose (up to 150 µM), below the 70% cut-off for dose-response; higher = more potent
# Conditions: 18 h; 30 °C; YPD
# Method in brief: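 Values are percent growth inhibition of drug-sensitive S. cerevisiae ABC16-Green Monster cells. Cells grown overnight in YPD at 30 °C were diluted to log phase (OD600 0.1–0.2), and each library compound was added at a single dose of 150 µM to 200 µl culture per well in 96-well plates, in biological duplicates, beside untreated cultures. OD600 was read at 0 h and after 18 h at 30 °C, and compounds under 70% in both replicates were not taken to dose-response.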
row,SMILES,growth inhibition at single dose [%]
1,Nc1ncc(-c2ccc(C(F)(F)F)nc2)cc1-c1ccc(C(F)(F)F)nc1,< 70
2,NS(=O)(=O)c1cncc(-c2ccc3nccc(-c4cn[nH]c4)c3n2)c1,< 70
3,O=C(Cc1ccccc1)NC(c1ccc(Cl)cc1)c1c(O)ccc2ccccc12 (stereo not given),< 70
4,Cc1nc(-c2ccccn2)nc(N2CCCC2)c1Cl,< 70
5,C[C@H](C(N)=O)N1CCCC[C@H]1c1ccc(OCc2cccc(F)c2)cc1,< 70
6,O=c1nc(/C=C/c2ccc(Cl)cc2)oc2ccccc12,< 70
7,CC(Oc1ccc(Cl)cc1)C(=O)Nc1sccc1C(N)=O (stereo not given),< 70
8,O=C(C1CCN(c2cc(-n3cccc3)ncn2)CC1)N1CCc2ccccc2C1,< 70
9,Cc1ccc(NS(=O)(=O)c2ccc(C(=O)Nc3ncccc3O)cc2)cc1C,< 70
10,COc1ccc(C2NCCc3c2[nH]c2ccccc32)cc1CN1CCN(c2ccc(F)cc2)CC1 (stereo not given),< 70
11,Cc1cc(=O)oc2c1ccc1oc(C(=O)c3ccccc3)c(C)c12,< 70
12,CN1CCCN(C(c2ccccc2)c2ccc(Cl)cc2)CC1 (stereo not given),< 70
13,CNc1snc(C)c1C(=O)Nc1ccc(OC)c(Cc2ccccc2)c1,< 70
14,O=C(COc1ccc2[nH]c3ccccc3c(=O)c2c1)Nc1ccccc1Cc1ccccc1,< 70
15,CCOC(=O)c1cnc2ccc(Cl)cc2c1NCCCN(C)C,< 70
16,COCCN(C(=O)Cc1cccs1)C(C(=O)NCc1ccc(OC)cc1)c1ccc(C(C)C)cc1 (stereo not given),< 70
17,O=C(NCC(c1ccsc1)N1CCCCCC1)c1ccc(C(F)(F)F)cc1 (stereo not given),< 70
18,Cc1ccc(NC(=O)c2nc[nH]c2C(=O)Nc2nc3ccccc3[nH]2)c(C)c1,< 70
19,NCC(c1cccs1)S(=O)(=O)c1ccccc1 (stereo not given),< 70
20,Cc1ccc(OCCNC(=O)c2[nH]c3c(c2C)C(=O)CCC3)c(C)c1,< 70
21,O=c1nc(C=Cc2ccc(Br)cc2)oc2ccccc12,< 70
22,OC(Cn1nnc2ccccc21)Cn1c2ccc(Br)cc2c2cc(Br)ccc21 (stereo not given),< 70
23,Cc1ccc2c(c1)nc1n2CN(CCN2CCOCC2)CN1Cc1ccccc1,< 70
24,CC(C)(C)OC(=O)N1CCN(c2nccc(-c3ccc(-c4ccc(Cl)cc4)s3)n2)CC1,< 70

row,SMILES,growth inhibition at single dose [%]
1,O=C(N[C@H](Cc1ccccc1)C(=O)Nc1ccccc1N1CCOCC1)c1cccs1,< 70
2,COc1ccc(-c2nnc(SC(C)C(=O)NCCC3=CCCCC3)[nH]2)cc1 (stereo not given),< 70
3,CCOC(=O)c1c(C)[nH]c(C(=O)Nc2cccc(C)n2)c1C,< 70
4,CCN(CC)S(=O)(=O)c1ccc(C(C)NC(=O)c2nn(CC)c(=O)c3ccccc23)cc1 (stereo not given),< 70
5,Cc1cc(C)n(-c2ccc(NC(=O)C3(c4ccccc4)CC3)cn2)n1,< 70
6,Cc1cccc(C2CC(=O)c3cnn(-c4nc(C)cc(C)n4)c3C2)c1 (stereo not given),< 70
7,COc1cc(Nc2ncnc3ccsc23)cc(OC)c1,< 70
8,O=C(Nc1nc2cc3c(cc2s1)OCCO3)c1cccc2c[nH]nc12,< 70
9,O=C(Nc1ccc(Cl)cc1C(=O)Nc1ccncc1)c1ccc(Cl)cc1Cl,< 70
10,N#C/C(=N\Nc1cccc(Cl)c1)C(=O)c1cc(-c2ccccc2)c(C(F)(F)F)s1,< 70
11,CCCCCCc1cc2cc(-c3nc4ccccc4[nH]3)c(=Nc3ccccc3C)oc2cc1O,< 70
12,COc1cccc(Cn2nc(C(=O)NC3CC3)c3c2CCN(Cc2cc4c(cc2Cl)OCO4)C3)c1,< 70
13,CO/C=C(/C(=O)OC)c1ccccc1Oc1cc(Oc2ccccc2C#N)ncn1,< 70
14,Cc1nc(NCc2ccco2)c2c(C)c(C)sc2n1,< 70
15,CCOc1ccccc1NC(C)C(=O)Nc1cc(C(F)(F)F)ccc1N1CCOCC1 (stereo not given),< 70
16,COCCn1c(C)cc(C(=O)CSc2nnc(C)s2)c1C,< 70
17,COc1ccccc1OCCCCn1c(C2CC2)nc2ccccc21,< 70
18,CO[C@@H]1CN(c2ccc(C#CC3(O)CN4CCC3CC4)c(Cc3ccccc3)n2)C[C@H]1O (stereo not given in full),< 70
19,Oc1c(I)cc(I)c2cccnc12,< 70
20,CCCc1c(C)nc2ccccc2c1O,< 70
21,CC(C)(C)c1ccc(N[C@@H]2CCCC[C@H]2NC(=O)c2ccco2)cc1,< 70
22,CC(C)c1nc(N2CCN(CC(=O)N3CCCC3)CC2)c(C#N)c2c1CCC2,< 70
23,CCCNC(=O)N1CCC2(CC1)CC(=O)c1cc(C)ccc1O2,< 70
24,CC(=O)c1c(C)[nH]c(C(=O)OCCOc2ccccc2)c1C,< 70

row,SMILES,growth inhibition at single dose [%]
1,CN1CCN(c2nc(Nc3ccc(O)cc3)nc3ccccc23)CC1,< 70
2,CCOC(=O)c1c(NC(=O)Cn2ncc(Cl)c(Cl)c2=O)sc(C(=O)NC)c1C,< 70
3,COc1ccc(C=C2SC(Nc3ccccc3)=NC2=O)cc1,< 70
4,O=C(NC1CCCC1)c1ccc(N2CCC(NCc3cccc(C(F)(F)F)c3)CC2)cc1,< 70
5,O=C(Nc1ncccc1O)c1ccc(S(=O)(=O)NCCc2cccs2)cc1,< 70
6,Brc1cnc2nc(-c3ccccc3)[nH]c2c1,< 70
7,Cc1ccc(-c2cc3c(SCC(=O)Nc4cc(C(F)(F)F)ccc4Cl)nccn3n2)cc1,< 70
8,Cc1c(C)n(CC(O)CNC2CCCCC2C)c2ccccc12 (stereo not given),< 70
9,O=C(Nc1ccccc1)c1ccc(CN2CCN(CCOc3ccccc3)CC2)cc1,< 70
10,CN1CCN(c2nccc3nc(-c4ccc(F)c(F)c4)[nH]c23)CC1,< 70
11,CCc1c(C)[nH]c2cc(-c3ccc(OC)cc3)nn2c1=O,< 70
12,CCc1cc(C(=O)Nc2ncccc2O)sc1C,< 70
13,Cc1c(-c2ccccc2)sc2[nH]c(CC(N)=O)nc(=O)c12,< 70
14,CCc1nc2ccccc2n1CC(O)COc1cc(C)ccc1Cl (stereo not given),< 70
15,Cc1cc(C)c(C#N)c(SCC(=O)N(C)Cc2cnn(-c3ccccc3)c2)n1,< 70
16,CCN(CC)c1ccc(NC(=O)c2cccs2)cc1,< 70
17,CC(=O)Nc1ccc(-c2noc(CC3CCCN(Cc4cccc(F)c4C)C3)n2)cc1 (stereo not given),< 70
18,CC(=O)N1CCc2cc(NC(=O)c3cc(C)n(C4CCCCC4)c3C)ccc21,< 70
19,O=C(CCl)NCCOc1ccc(Cl)cc1Cl,< 70
20,COc1ccc(C2=NN(C3CCCCCC3)C(=O)C2(C)C)cc1OCCCCOc1ccc(-c2nn[nH]n2)cc1,< 70
21,CC(Nc1ncnc2sccc12)c1ccc(-n2cncn2)cc1 (stereo not given),< 70
22,COc1cncc(-c2cncc(N3CCN(c4ccncc4)CC3)n2)c1,< 70
